Measurements published in US20220204577A1, “Synthetic Peptides With Affinity for the Interleukin-10 Receptor, Pharmaceutical Composition and Use Thereof as Immunomodulators for Treating Autoimmune, Inflammatory or Allergic Diseases” (Universidade Federal de Uberlândia, priority 2019, published 2022).
Positions of bridges follow the written chain, without caps; N, C: chain ends. No end group written: not given here.

What was measured:
[1] = Dynamic Light Scattering (DLS), aggregation behavior in solution; type: physicochemical
Procedure: The aggregation behavior of peptides Pep 1, Pep 2, Pep 3, and Pep 4 in solution was determined by Dynamic Light Scattering (DLS), as shown in FIG. 1E. All synthetic peptides were approximately 100% monomeric in solution. The measured hydrodynamic radius of the peptides was similar for Pep 1 (0.82 nm), Pep 2 ([…]), Pep 3 (0.79 nm), and Pep 4 (0.86 nm).

[2] = tested on: NFκB, IFN, or TLR4 signaling pathways; experiment: Reporter cell lines treated with peptides alone (no activating molecule); type: cell-based; conditions: various concentrations, 12, 24 and 48 hours
Procedure: To investigate the ability of the peptides to interfere with the NFkB, IFN, and TLR4 pathways, reporter cell lines were used. To analyze whether the isolated peptides (without activation molecules) could induce any type of activation, the isolated peptides were tested in the cell lines during 12, 24, and 48 hours of treatment. […] As an example, FIGS. 2A, 2B, and 2C show an analysis of NFkB expression after stimulation with the synthesized peptides described in this report. The cells were treated with the synthesized peptides Pep 1, Pep 2, Pep 3, and Pep 4 at various concentrations for 12, 24, and 48 hours, without activating molecules. Luciferase was then measured after 12 hours of treatment (FIG. 2A), 24 hours of treatment (FIG. 2B), and 48 hours of treatment (FIG. 2C). […] TNF-α (200 ng/mL) was used as a positive control.

NFκB [3] = experiment: NFkB expression in Jurkart-Dual reporter cells, peptide pre-treatment then TNF-α; type: cell-based; conditions: peptide 1 hour, then TNF-α 200 ng/ml; all concentrations tested; 12, 24 and 48 hours
Procedure: The assay was then performed using TNF-α as the activating molecule not only in the control, but after a pre-treatment with the synthesized peptides Pep 1, Pep 2, Pep 3, and Pep 4 at various concentrations. […] In the assays shown in FIGS. 3 A, B, and C, NFkB expression analysis was performed in Jurkart-Dual reporter cells. Cells were treated with peptides for 1 hour and TNF-α (200 ng/ml) was added. Luciferase was measured after 12 hours of treatment (FIG. 3A), 24 hours of treatment (FIG. 3B), and 48 hours of treatment (FIG. 3C).

NFκB [4] = experiment: NFkB expression in Jurkart-Dual reporter cells, TNF-α pre-treatment then peptides; type: cell-based; conditions: for NFκB signaling: TNF-α then peptide
Procedure: Then another assay was performed in which the cells were pretreated with TNF-α and the peptides were added later. […] In the assays shown in FIGS. 4 A, B, and C the analysis of NFkB expression was performed in Jurkart-Dual reporter cells. Cells were treated with TNF-α (200 ng/ml) for 1 hour and the peptides were added. Luciferase was measured after 12 hours of treatment (FIG. 4A), 24 hours of treatment (FIG. 4B), and 48 hours of treatment (FIG. 4C). TNF-α (200 ng/mL) was used as a positive control and rIL-10 (Recombinant Interleukin-10) (0.4 ng/mL) as a negative control. * P<0.05; ** P<0.005; *** P<0.0005.

IFN signaling pathway = IFN signaling pathway (SEAP) in Jurkart-Dual reporter cells, peptide pre-treatment then IFN-α; type: cell-based; conditions: peptide 1 hour, then IFN-α (104 EU/ml); 10 μM; 12 hours
Procedure: Therefore, we cannot confirm whether they were able to affect the activation pathway (FIGS. 6A, B, and C) in the same or better way than the negative control (rIL-10). In the assays shown in FIGS. 5 (A, B, and C) and 6 (A, B, and C), IFN expression was analyzed in Jurkart-Dual reporter cells. In the assays shown in FIGS. 5 A, B, and C, cells were treated with peptides for 1 hour followed by the addition of IFN-α (104 EU/ml). Secreted Embryonic Alkaline Phosphatase (SEAP) production was measured after 12 hours of treatment (FIG. 5A), 24 hours of treatment (FIG. 5B), and 48 hours of treatment (FIG. 5C). In the assays shown in FIGS. 6 A, B, and C, cells were treated with IFN-α (104 EU/ml) for 1 hour, and then peptides were added. SEAP production was measured after (D) 12 hours of treatment (E) 24 hours of treatment, and (F) 48 hours of treatment. IFN-α (104 EU/mL) was used as a positive control and rIL-10 (0.4 ng/mL) as a negative control. * P<0.05.

TLR4 signaling pathway = TLR4 signaling pathway (SEAP) in HEK cells, peptide pre-treatment then LPS; type: cell-based; conditions: peptide then LPS; 0.005 μM; 12 hours
Procedure: HEK cells were used to investigate the ability of the peptides to reduce activation of the TLR4 signaling pathway after 12 hours of treatment.
In the assay shown in FIG. 7A, the cells were treated with peptides for 1 hour, then LPS (100 ng/ml) was added. SEAP production was measured after 12 hours of treatment. In the assay shown in FIG. 7B, the cells were treated with LPS (100 ng/ml) for 1 hour, then the peptides were added. SEAP production was measured after 12 hours of treatment. LPS (100 ng/mL) was used as positive control and IL-10 (0.4 ng/mL) as negative control. * P<0.05; ** P<0.005; *** P<0.0005.

[5] = tested on: mouse basophilic leukemia cells transfected with the human FcεRI IgE receptor (hRBL); experiment: IgE-mediated release of β-hexosaminidase (basophil degranulation) in hRBL cells; type: cell-based; conditions: 1 μM; versus cells treated with Bet v1 alone; serum from seven birch pollen-allergic donors
Procedure: The effect of Pep 1 on IgE-mediated release was studied using mouse basophilic leukemia cells transfected with the human FcεRI IgE receptor (hRBL). The hRBL cells were sensitized with serum from seven patients allergic to birch pollen. The cells were stimulated with the antigen and its interaction with immobilized IgEs resulting in the release of β-hexosaminidase.
When cells were treated with a composition containing Pep 1 to 1 μM (FIG. 10A) or rIL10 (FIG. 10B), the amount of Bet v 1 required to induce the same amount of degranulation was higher than for cells treated with Bet v1 alone (P<0.05). Amount of rBet v 1 (ng/mL) required to induce half the release of β-hexosaminidase using serum from seven birch pollen-allergic donors after treatment with Pep 1 (A) (P<0.05) and rIL10 (B) * P<0.05.

Which hydrodynamic radius [1] does the source give for “Pep 1: synthetic peptide with affinity to the Interleukin-10 receptor, SEQ ID No 01, with disulfide bridges (HACSAVIKSSCGGGS; disulfide 3-11 (inferred))” here?
Its hydrodynamic radius is 0.82 nm.

And the “NFkB expression (luciferase)” value [2]?
The value was “unable to elicit any response”.

And the NFκB activation (NFκB [3])?
Its NFκB activation is “able to decrease NFκB activation”.

And the NFκB signaling (NFκB [4]; 0.0001 μM, 24 hours)?
Its NFκB signaling is “less activation of the analyzed signaling pathway”.

What about the NFκB signaling (NFκB [4]; 0.001 μM, 12 hours) of the same substance?
Its NFκB signaling is “decreased the activation of the analyzed pathway”.

And the NFκB signaling (NFκB [4]; 0.001 μM, 24 hours)?
The NFκB signaling was “less activation of the analyzed signaling pathway”.

What about the NFκB signaling (NFκB [4]; 0.001 μM, 48 hours) of the same substance?
The NFκB signaling was “reducing NFκB signaling”.

What about the NFκB signaling (NFκB [4]; 0.005 μM, 24 hours) of the same substance?
The NFκB signaling was “less activation of the analyzed signaling pathway”.

What about the NFκB signaling (NFκB [4]; 0.05 μM, 12 hours) of the same substance?
Its NFκB signaling is “decreased the activation of the analyzed pathway”.

What about the NFκB signaling (NFκB [4]; 0.1 μM, 12 hours) of the same substance?
The NFκB signaling was “decreased the activation of the analyzed pathway”.

What about the NFκB signaling (NFκB [4]; 0.1 μM, 24 hours) of the same substance?
Its NFκB signaling is “less activation of the analyzed signaling pathway”.

What about the NFκB signaling (NFκB [4]; 0.5 μM, 12 hours) of the same substance?
The NFκB signaling was “decreased the activation of the analyzed pathway”.

What about the NFκB signaling (NFκB [4]; 1 μM, 12 hours) of the same substance?
Its NFκB signaling is “decreased the activation of the analyzed pathway”.

What about the NFκB signaling (NFκB [4]; 1 μM, 24 hours) of the same substance?
The NFκB signaling was “less activation of the analyzed signaling pathway”.

And the NFκB signaling (NFκB [4]; 5 μM, 12 hours)?
Its NFκB signaling is “decreased the activation of the analyzed pathway”.

And the NFκB signaling (NFκB [4]; 10 μM, 12 hours)?
Its NFκB signaling is “decreased the activation of the analyzed pathway”.

What about the NFκB signaling (NFκB [4]; 10 μM, 24 hours) of the same substance?
The NFκB signaling was “less activation of the analyzed signaling pathway”.

And the NFκB signaling (NFκB [4]; 100 μM, 24 hours)?
The NFκB signaling was “less activation of the analyzed signaling pathway”.

What about the NFκB activation (NFκB [4]; cells pretreated with TNF-α, all concentrations tested, 12 and 24 hours) of the same substance?
The NFκB activation was “decreased NFκB activation”.

What about the “activation of the IFN signaling pathway” value (IFN signaling pathway) of the same substance?
Its value is “activation of the pathway was reduced”.

What about the TLR4 pathway activation (TLR4 signaling pathway) of the same substance?
The TLR4 pathway activation was “significantly reduced pathway activation”.

And the “amount of Bet v 1 required to induce the same amount of degranulation” value [5]?
Its value is “higher”.
